Results: PubChem BioAssay (NCI)
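In this assay, cells in 96-well plates receive the compound at five concentrations for 48 hours. Endpoints are linearly interpolated between the surrounding concentrations. GI50: concentration for 50% inhibition of growth. Definition used: TGI = concentration required for complete inhibition of growth.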

What was measured:
Assay in all cases: NCI tumour cell line growth inhibition, 48 h
IGROV1 ovarian = test system: IGROV1 ovarian
OVCAR-8 ovarian = test system: OVCAR-8 ovarian
A549 NSCLC = test system: A549 NSCLC
SF-268 CNS = test system: SF-268 CNS
U251 CNS = test system: U251 CNS
HL-60(TB) leukemia = test system: HL-60(TB) leukemia
HS 578T breast = test system: HS 578T breast
NCI/ADR-RES ovarian = test system: NCI/ADR-RES ovarian
NCI-H522 lung = test system: NCI-H522 lung
MCF7 breast = test system: MCF7 breast

SMILES: O=C1N(Cc2ccccc2Cl)c2ccccc2C12NN=C(c1cccc(Cl)c1)S2 (stereo not given)
- GI50 (IGROV1 ovarian): 1.78 µM
- TGI (IGROV1 ovarian): 3.75 µM
- GI50 (OVCAR-8 ovarian): 1.96 µM
- TGI (OVCAR-8 ovarian): 4.41 µM
- GI50 (A549 NSCLC): 1.86 µM
- TGI (A549 NSCLC): 3.41 µM
- GI50 (SF-268 CNS): 1.59 µM
- TGI (SF-268 CNS): 3.26 µM
- GI50 (U251 CNS): 1.77 µM
- TGI (U251 CNS): 3.15 µM
- GI50 (HL-60(TB) leukemia): 2.49 µM
- TGI (HL-60(TB) leukemia): 6.32 µM
- GI50 (HS 578T breast): 2.4 µM
- TGI (HS 578T breast): 5.85 µM
- GI50 (NCI/ADR-RES ovarian): 1.78 µM
- TGI (NCI/ADR-RES ovarian): 4.14 µM
- GI50 (NCI-H522 lung): 1.72 µM
- TGI (NCI-H522 lung): 3.48 µM
- GI50 (MCF7 breast): 1.75 µM
- TGI (MCF7 breast): 3.37 µM

SMILES: Cc1ccc(-n2nnnc2-c2cnc(N3CCOCC3)nc2-c2cccc(C(F)(F)F)c2)cc1
- GI50 (IGROV1 ovarian): 1.63 µM
- TGI (IGROV1 ovarian): > 10.7 µM
- GI50 (OVCAR-8 ovarian): 2.83 µM
- TGI (OVCAR-8 ovarian): > 22.5 µM
- GI50 (A549 NSCLC): 2.26 µM
- TGI (A549 NSCLC): > 50 µM
- GI50 (SF-268 CNS): 3 µM
- TGI (SF-268 CNS): 29.4 µM
- GI50 (U251 CNS): 3.52 µM
- TGI (U251 CNS): > 10.6 µM
- GI50 (HL-60(TB) leukemia): 2.34 µM
- TGI (HL-60(TB) leukemia): 17.5 µM
- GI50 (HS 578T breast): 1.27 µM
- TGI (HS 578T breast): > 13.8 µM
- GI50 (NCI/ADR-RES ovarian): 0.825 µM
- TGI (NCI/ADR-RES ovarian): 2.36 µM
- GI50 (NCI-H522 lung): 1.89 µM
- TGI (NCI-H522 lung): > 12.9 µM
- GI50 (MCF7 breast): 1.32 µM
- TGI (MCF7 breast): > 32.8 µM

SMILES: COc1ccc(CCN2CCC(CN(C)Cc3cnn(-c4ccccc4)c3)CC2)cc1
- GI50 (IGROV1 ovarian): 25.6 µM
- TGI (IGROV1 ovarian): > 100 µM
- GI50 (OVCAR-8 ovarian): 16.5 µM
- TGI (OVCAR-8 ovarian): 37.5 µM
- GI50 (A549 NSCLC): 19.4 µM
- TGI (A549 NSCLC): 48.9 µM
- GI50 (SF-268 CNS): 14.2 µM
- TGI (SF-268 CNS): 34.7 µM
- GI50 (U251 CNS): 13 µM
- TGI (U251 CNS): 27 µM
- GI50 (HL-60(TB) leukemia): 20 µM
- TGI (HL-60(TB) leukemia): 48.4 µM
- GI50 (HS 578T breast): 13.5 µM
- TGI (HS 578T breast): 32.6 µM
- GI50 (NCI/ADR-RES ovarian): 26.7 µM
- TGI (NCI/ADR-RES ovarian): > 100 µM
- GI50 (NCI-H522 lung): 4.54 µM
- TGI (NCI-H522 lung): 19 µM
- GI50 (MCF7 breast): 13.9 µM
- TGI (MCF7 breast): 28.2 µM

SMILES: COc1cc(Cl)cc(-c2nn(-c3cccc(NC(=O)Nc4ccc(Cl)c(Cl)c4)c3)cc2-c2ccncc2)c1
- GI50 (IGROV1 ovarian): 4.35 µM
- TGI (IGROV1 ovarian): > 100 µM
- GI50 (OVCAR-8 ovarian): 2.3 µM
- TGI (OVCAR-8 ovarian): 11.2 µM
- GI50 (A549 NSCLC): 1.48 µM
- TGI (A549 NSCLC): 15.3 µM
- GI50 (SF-268 CNS): 3.27 µM
- TGI (SF-268 CNS): > 100 µM
- GI50 (U251 CNS): 1.7 µM
- TGI (U251 CNS): 6.03 µM
- GI50 (HL-60(TB) leukemia): 2.19 µM
- TGI (HL-60(TB) leukemia): 5.68 µM
- GI50 (HS 578T breast): 3.89 µM
- TGI (HS 578T breast): > 100 µM
- GI50 (NCI/ADR-RES ovarian): 2.34 µM
- TGI (NCI/ADR-RES ovarian): 24.9 µM
- GI50 (NCI-H522 lung): 1.29 µM
- TGI (NCI-H522 lung): 4.48 µM
- GI50 (MCF7 breast): 2.56 µM
- TGI (MCF7 breast): 13.2 µM

SMILES: COCCOCCOCc1n(Cc2ccc3ccccc3n2)c2ccccc2[n+]1Cc1ccc2ccccc2n1
- GI50 (IGROV1 ovarian): 0.645 µM
- TGI (IGROV1 ovarian): 11.8 µM
- GI50 (OVCAR-8 ovarian): 1.27 µM
- TGI (OVCAR-8 ovarian): 12.6 µM
- GI50 (A549 NSCLC): 3.21 µM
- TGI (A549 NSCLC): 69.5 µM
- GI50 (SF-268 CNS): 0.903 µM
- TGI (SF-268 CNS): 16.2 µM
- GI50 (U251 CNS): 0.354 µM
- TGI (U251 CNS): 12.9 µM
- GI50 (HL-60(TB) leukemia): 0.26 µM
- TGI (HL-60(TB) leukemia): 1.31 µM
- GI50 (HS 578T breast): 2.16 µM
- TGI (HS 578T breast): 21 µM
- GI50 (NCI/ADR-RES ovarian): > 100 µM
- TGI (NCI/ADR-RES ovarian): > 100 µM
- GI50 (NCI-H522 lung): 0.415 µM
- TGI (NCI-H522 lung): 11.1 µM
- GI50 (MCF7 breast): 0.369 µM
- TGI (MCF7 breast): 11.1 µM

SMILES: COc1ccc(NCC(=O)Nn2c(-c3ccccc3)nc3ccccc3c2=O)cc1
- TGI (IGROV1 ovarian): > 100 µM
- TGI (OVCAR-8 ovarian): > 100 µM
- TGI (A549 NSCLC): > 100 µM
- TGI (SF-268 CNS): > 100 µM
- TGI (U251 CNS): 87.1 µM
- TGI (HL-60(TB) leukemia): > 100 µM
- TGI (HS 578T breast): > 100 µM
- TGI (NCI/ADR-RES ovarian): 59.1 µM
- TGI (NCI-H522 lung): > 10 µM
- TGI (MCF7 breast): 41.2 µM

SMILES: CN1CCN(c2nc(-c3csc(-c4cccs4)n3)cc3ccccc23)CC1
- GI50 (IGROV1 ovarian): 1.57 µM
- TGI (IGROV1 ovarian): 3.12 µM
- GI50 (OVCAR-8 ovarian): 1.89 µM
- TGI (OVCAR-8 ovarian): 3.97 µM
- GI50 (A549 NSCLC): 1.76 µM
- TGI (A549 NSCLC): 3.55 µM
- GI50 (SF-268 CNS): 1.82 µM
- TGI (SF-268 CNS): 3.6 µM
- GI50 (U251 CNS): 1.66 µM
- TGI (U251 CNS): 3.29 µM
- GI50 (HL-60(TB) leukemia): 2.17 µM
- TGI (HL-60(TB) leukemia): 4.71 µM
- GI50 (HS 578T breast): 1.7 µM
- TGI (HS 578T breast): 4.34 µM
- GI50 (NCI/ADR-RES ovarian): 1.93 µM
- TGI (NCI/ADR-RES ovarian): 3.92 µM
- GI50 (NCI-H522 lung): 1.94 µM
- TGI (NCI-H522 lung): 3.95 µM
- GI50 (MCF7 breast): 1.63 µM
- TGI (MCF7 breast): 3.2 µM

SMILES: CC(C)(C)OC(=O)NCc1cccc(N=C=S)c1
- GI50 (IGROV1 ovarian): 19.3 µM
- TGI (IGROV1 ovarian): 41.8 µM
- GI50 (OVCAR-8 ovarian): 29.6 µM
- TGI (OVCAR-8 ovarian): > 92.7 µM
- GI50 (A549 NSCLC): 28 µM
- TGI (A549 NSCLC): 72.1 µM
- GI50 (SF-268 CNS): 21 µM
- TGI (SF-268 CNS): 64.9 µM
- GI50 (U251 CNS): 23 µM
- TGI (U251 CNS): 53.4 µM
- GI50 (HL-60(TB) leukemia): 28.2 µM
- TGI (HL-60(TB) leukemia): 69.8 µM
- GI50 (HS 578T breast): 24.6 µM
- TGI (HS 578T breast): > 84.8 µM
- GI50 (NCI/ADR-RES ovarian): 26.2 µM
- TGI (NCI/ADR-RES ovarian): 79.4 µM
- GI50 (NCI-H522 lung): 17.4 µM
- TGI (NCI-H522 lung): 44.1 µM
- GI50 (MCF7 breast): 16.6 µM
- TGI (MCF7 breast): 42.4 µM
